From PubChem BioAssay AID179 (DTP/NCI, 2004)
Several values for one entry are separate records, joined by “and”; a condition that tells them apart may be missing. Equal values may be shown once. Activity calls are given as the source filed them.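 How the source made its calls: active means compounds giving half or more protection of infected cells from virus-caused growth loss, again on retest; inactive means the rest.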 Where a SMILES comes first, the peptide text is derived from it. [ ]: non-standard residue; d: D form. The star is where a group is joined. ξ: configuration not given here. ξD = NC(CC(=O)O)C(=O)O; Ac3c = NC1(C(=O)O)CC1; Boc = CC(C)(C)OC(=O)*; Bn = c1ccc(C*)cc1; OtBu = CC(C)(C)O*

Tested on: CEM cells HIV-1 protection, formazan growth assay
Test: NCI AIDS Antiviral Assay
Conditions: for IC50: measured here: growth of uninfected CEM cells
Procedure, shortened: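 Five concentrations of each compound were applied to infected and uninfected human CEM cells. Protection from HIV-1 was judged from growth measured with a soluble formazan assay.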

SMILES | EC50 | IC50 | outcome
CCN(CC)CCCCCCNc1cc(OC)cc2c(C)ccnc12 | > 603 µM | 19.5 µM | –
Cc1cnc(SCCN(C)C)nc1-c1ccc(-c2nc(SCCN(C)C)ncc2C)s1 | > 13.5 µM | 12.6 µM | –
COC1(C)CNCC(C)(C)NC(=O)C(C)(OC)CNCC(C)(C)NC1=O (stereo unspecified) | > 81.3 µM | > 81.3 µM | –
CCC(=O)N(c1ccccc1)C(C)CN1CCC(O)(c2ccccc2)CC1 (stereo unspecified) | > 200 µM | > 200 µM | –
CC(C)(C)C1=CC(C)(n2[nH]c(=O)n(-c3ccccc3)c2=O)C=C(C(C)(C)C)C1=O | > 200 µM | 97.7 µM | –
O=c1c(O)c(O)c1=O.[NH2-].[NH2-].[NH2-].[NH2-].[NH2-].[Ru+5] | > 21.4 µM | > 21.4 µM | –
S=c1[nH]nc2ccccn12 | > 200 µM | > 200 µM | –
N#Cc1c(-c2ccccc2)cn(C(=O)c2ccccc2)c1N | > 200 µM | 191 µM | –
O=C(O)c1cc2c([nH]1)-c1cc(C(=O)O)c(C(=O)O)nc1C(=O)C2=O | – | – | inactive
COc1cc(O)c2c(=O)c3c(OC)c(O)ccc3oc2c1 | > 200 µM | 56.2 µM | –
O=C1/C(=C\c2ccc([N+](=O)[O-])cc2)Sc2scc(-c3ccc(O)c(O)c3)[n+]21 | > 200 µM | 5.25 µM | –
O=C(O)CN1CCNCCN(CC(=O)O)CCNCC1 | > 200 µM | 3.63 µM | –
CCOC(=O)NC(=O)c1cn(CCCOC(=O)CCCCCCCCC(=O)OCCCn2cc(C(=O)NC(=O)OCC)c(=O)[nH]c2=O)c(=O)[nH]c1=O | – | – | inactive
Cc1cccc(N2C(=O)C3c4[nH]c5ccccc5c4C4CCC(C(C)(C)C)CC4C3C2=O)c1C (stereo unspecified) | > 200 µM | 22.9 µM | –
CC12CC(Sc3ccccc3N1)c1ccccc1O2 (stereo unspecified) | > 132 µM | 21.4 µM | –
CCN(CC)CCNc1ccc(CO)c2oc3cc(Cl)ccc3c(=O)c12 | > 25.1 µM | 4.57 µM | –
O=S1(=O)CCN2OCC1C2c1cccc2ccccc12 (stereo unspecified) | – | – | inactive
O=c1c2ccccc2n2n1Cc1ccccc1C2 | > 200 µM | 102 µM | –
ClC1(Cl)C2(Cl)C3(Cl)C4C2(Cl)C2(Cl)C4(Cl)C3(Cl)C12Cl (stereo unspecified) | > 200 µM | 33.1 µM | –
c1ccc2c(c1)[nH]c1scc[n+]12 | – | – | inactive
O=[N+]([O-])c1ccc(C2=Cc3ccc4ccccc4[n+]3NC2)cc1 | > 50.1 µM | > 50.1 µM | –
N#C/C(=C\c1ccc(Cl)cc1)c1ccccc1 | > 200 µM | 32.4 µM | –

SMILES | EC50 | IC50 | outcome
CNc1ccc(/C=C/c2ccnc3ccccc23)cc1 | > 200 µM | 6.31 µM | –
COc1cc(OC)c2c(c1)C(=O)c1cc(C)cc(O)c1C2=O | – | – | inactive
CC(=O)Nc1oc(C)nc1C#N | > 200 µM | > 200 µM | –
[N-]=[N+]=Nc1c(Br)c(=O)[nH]c(=O)n1COCCO | – | – | inactive
CNC(=O)C(CC(C)C)NC(=O)C(C)NC(=O)C(Cc1ccc(OCc2ccccc2)cc1)NC(=O)C(COCc1ccccc1)NC(=O)OC(C)(C)C (stereo unspecified) (Boc-S(Bn)Y(Bn)AL-NHMe; configuration not given here) | > 200 µM | 9.55 µM and 13.5 µM | –
CSc1c(C#N)c(S)n(-c2ccc(Cl)cc2)c(=O)c1C#N | > 200 µM | 52.5 µM | –
COc1ccc2nc3ccc(OC)cc3c(S(=O)CCCl)c2c1 (stereo unspecified) | > 200 µM | 3.63 µM | –
CN(C)N(CCO)CCO | > 200 µM | > 200 µM | –
NC(CCSCc1ccccc1)P(=O)(O)O (stereo unspecified) | > 200 µM | > 200 µM | –
O=C1CC(c2ccccc2)C(c2ccccc2)C1=O (stereo unspecified) | > 129 µM | 52.5 µM | –
CC(C)C(=O)CC(c1ccc(Br)cc1)N1N=C(C(C)C)CC1c1ccc(Br)cc1 (stereo unspecified) | > 10 µM | > 10 µM | –
C=CCn1c(N)c(N=O)c(=O)n(CC)c1=O | > 200 µM | > 200 µM | –
CC(C)Oc1c(C2(c3ccccc3O)SCCCS2)c(=O)c1=O | > 200 µM | 112 µM | –
O=C(NC1CCCC1=O)c1ccccc1 (stereo unspecified) | – | – | inactive
O=C1CC2COc3ccc(O)cc3C2=NN1c1ccccc1 (stereo unspecified) | > 324 µM | 110 µM | –
CCN(CC)CCC(=O)NC1c2ccccc2Oc2c(C)cccc21 (stereo unspecified) | > 275 µM | 58.9 µM | –
NC(=O)N/N=C(\CCC(=O)N(Cc1ccccc1)Cc1ccccc1)CC(=O)c1ccc(F)cc1 | > 200 µM | > 200 µM | –
CC=C=C(C)CN | > 447 µM | > 447 µM | –
CN1C=COC1N=C1CCCCC1 (stereo unspecified) | > 200 µM | > 200 µM | –
O=C(O)c1cc2oc(-c3ccccc3)cc2[nH]1 | > 219 µM | 155 µM | –
O=Cc1[nH]c(=O)[nH]c(=O)c1CCl | > 200 µM | 35.5 µM | –
O=[N+]([O-])c1cccnc1NCC1(CO)CCCC1 | > 200 µM | 46.8 µM | –

SMILES | EC50 | IC50 | outcome
COCC12CC(CC1=O)C1C2ON2c3ccccc3C(=O)C12c1ccccc1 (stereo unspecified) | > 50.1 µM | > 50.1 µM | –
COC(=O)C1(NC(=O)C(CC(=O)OC(C)(C)C)NC(=O)OC(C)(C)C)CC1 (stereo unspecified) (Boc-[ξD](OtBu)-[Ac3c]-OMe) | > 200 µM | > 200 µM | –
CCOC(=O)c1nc2ccc(C(F)(F)F)cc2nc1NCc1cc(OC)c(OC)c(OC)c1 | > 126 µM | > 126 µM | –
Nc1ncnc2c1ncn2C(=O)NC12CC3CC(CC(C3)C1)C2 | > 100 µM | > 100 µM | –
COC(=O)c1ccc(OCc2ccc3nc(-c4ccccc4)c(Cl)nc3c2)cc1 | > 200 µM | > 200 µM | –
c1ccc(CN2CCC3(CC2)SSC2(CCN(Cc4ccccc4)CC2)S3)cc1 | > 100 µM | 87.1 µM | –
CNC(=O)[C@H](Cc1ccccc1)NC(=O)N(CCC#N)CCN(C(=O)N[C@@H](Cc1ccccc1)C(=O)OC)c1ccccc1 | > 200 µM | > 200 µM | –
C[N+]1(C)CC2C3C=CC(C3)C2C1 (stereo unspecified) | > 309 µM | > 309 µM | –
CC(=O)Nc1ccc2cc(C)c(=O)[nH]c2n1 | > 200 µM | > 200 µM | –
N#CCCN(CCC#N)c1ccc(/C=C2/N=C(COc3ccccc3)N(c3ccc(Cl)cc3)C2=O)cc1 | > 37.2 µM | > 37.2 µM | –
Cc1ccc(-c2n[nH]c(=O)n2NC(=O)c2ccccc2C(=O)O)cc1 | – | – | inactive
O=C(Nc1ccccc1Cl)c1cc2cc(N=Nc3ccc(Br)cc3)ccc2oc1=O | – | – | inactive
O=C1C2C=CC1C1C(=O)OC(=O)C21 (stereo unspecified) | – | – | inactive
O=S(=O)(F)c1cccc(C[P+](c2ccccc2)(c2ccccc2)c2ccccc2)c1 | > 200 µM | 51.3 µM | –
O=C(OCc1ccccc1)N1N=NC2C1C1CC(OCc3ccccc3)(OCc3ccccc3)C2O1 (stereo unspecified) | > 14.8 µM | > 14.8 µM | –
CC12c3ccccc3C(C)(c3c1ccc1ccccc31)C1C(=O)OC(=O)C12 (stereo unspecified) | > 38.9 µM | 26.9 µM | –
NC(=O)/C(=N\NC(=O)c1cc2ccccc2cc1O)C1C(=O)N(c2ccccc2)N=C1N (stereo unspecified) | > 219 µM | 13.8 µM | –
COS(=O)c1cc(Cl)cc(Cl)c1O (stereo unspecified) | – | – | inactive
O=C(/C=C/c1ccco1)c1cccc(C(=O)/C=C/c2ccco2)n1 | > 200 µM | 9.55 µM | –
NC(N)=N/N=C/c1c(-c2ccc(Cl)cc2)nc2sc(Cl)cn12 | > 20 µM | 1.07 µM | –
CC(C)C1=CC2=CC(=O)C3C(C)(C)CCCC3(C)C2=C(O)C1=O (stereo unspecified) | > 20 µM | 4.07 µM | –
COC1C(N(C)C)=C(c2ccccc2)C(=O)N2CCc3ccccc3C12 (stereo unspecified) | > 200 µM | 170 µM | –
